In patent US11091483B2, “Protein kinase regulators” (Nanjing Gator Meditech Company, Ltd., priority 2016, dated 2021):
Like-named read-outs stand apart in the source and are kept apart here.

Experiments:
[1] = system: HCT116 (human colon cancer); assay: CCK-8 cell viability assay on HCT116 cells; assay type: cell-based; conditions: HCT-116, 48 h
Protocol: (§1) The plate is incubated for 48 hours.
(§2) CCK-8 solution is added directly to the cells.

[2] = system: pAkt (phosphorylated form of Akt); assay: Western blots on A549 cells after 72 hours; conditions: western blot
Protocol: The following kinases were examined: Akt, pAkt, Mek1, Mek2, Erk2, pErk2 and c-Myc. In addition, Induced myeloid leukemia cell differentiation protein (Mcl-1) was also evaluated.

[3] = system: MDA-MB-231 (MDA 231, human breast adenocarcinoma); assay: CCK-8 cell viability assay on MDA-MB-231 cells; assay type: cell-based
Protocol: as §1, §2

[4] = Pharmacokinetic properties in a mouse; conditions: for Oral Bioavailability (% F): i.v. 2 mg/kg and oral 10 mg/kg; for AUC(0-inf): plasma, po, 10 mg/kg
Protocol: (§3) Each compound was formulated and administered to a mouse. Blood was taken at specific time points (0.25 h, 0.5 h, 1 h, 2 h, 4 h, 8 h, and 24 h) and evaluated for the drug administered by LC/MS. Each compound was administered i.v. at 2 mg/kg and also evaluated by oral administration (gavage) at 10 mg/kg (Formulation: 5% DMSO+95% HP-β-CD (20%, W/V) yielding a solution). […] In addition, percent oral bioavailability or % F is a measure of the percent of the drug given orally that is in systemic circulation in the plasma.

in vivo = conditions: mouse, po, 10 mg/kg
Protocol: as §3

[5] = HCT116, 48 hours incubation, CCK-8, read-out: IC50 (uM, HCT116)
[6] = MDA-MB-231, 48 hours incubation, CCK-8, read-out: IC50 (uM, MDA 231)

In the case of `O=C1C2=C(CCN(Cc3ccccc3)C2)N2CCN=C2N1Cc1ccc(C(F)(F)F)cc1` [Compound 2], the IC50 [1, 5] is reported as 0.03 µM, the “concentration providing similar reductions in pAkt” value [2] is reported as 0.037 uM and the IC50 [3, 6] is reported as 0.05 µM.

With `C#Cc1cccc(CN2CCC3=C(C2)C(=O)N(Cc2ccc(Cl)cc2)C2=NCCN23)c1` [Compound 4] the “Oral Bioavailability (% F)” value [4] was 33 % F, the AUC(0-inf) [4] was 255 ng·h/mL and the IC50 [1, 5] was 0.082 µM. It also gave an IC50 [3, 6] of 0.069 µM.

In the case of `Cc1cccc(CN2C(=O)C3=C(CCN(Cc4ccccc4)C3)N3C2=NC2CCCCC23)c1` (stereo not drawn) [Compound 5], the IC50 [1, 5] is reported as 1.3 µM and the IC50 [3, 6] is reported as 0.069 µM.

In the case of `O=C1C2=C(CCN(Cc3ccccc3)C2)N2CCN=C2N1Cc1ccccc1C(F)(F)F` [Compound 6], the IC50 [1, 5] is reported as 1.4 µM and the IC50 [3, 6] is reported as 1.2 µM.

Molecule `O=C1C2=C(CCN(Cc3ccccc3)C2)N2CCN=C2N1Cc1cccc(C(F)(F)F)c1` [Compound 7] has an IC50 [1, 5] of 0.24 µM and an IC50 [3, 6] of 0.4 µM.

`C#Cc1cccc(CN2CCC3=C(C2)C(=O)N(Cc2ccc(OC(F)(F)F)cc2)C2=NCCN23)c1` [Compound 8] showed an IC50 [1, 5] of 1.8 µM and an IC50 [3, 6] of 0.88 µM.

Work on `O=C1C2=C(CCN(Cc3ccccc3)C2)N2CCN=C2N1Cc1ccc(Cl)c(Cl)c1` [Compound 9] yielded an IC50 [1, 5] of 0.08 µM and an IC50 [3, 6] of 0.12 µM.

Work on `Cc1ccccc1CN1C(=O)C2=C(CCN(Cc3ccccc3Br)C2)N2CCN=C12` [Compound 10] yielded an IC50 [1, 5] greater than 25 µM and an IC50 [3, 6] greater than 25 µM.

With `Cc1ccccc1CN1C(=O)C2=C(CCN(Cc3cccc(Br)c3)C2)N2CCN=C12` [Compound 11] the IC50 [1, 5] was 0.72 µM and the IC50 [3, 6] was 0.74 µM.

For `C#Cc1cccc(CN2CCC3=C(C2)C(=O)N(Cc2ccc(C(F)(F)F)cc2)C2=NCCN23)c1` [Compound 12], the IC50 [1, 5] was 0.22 µM and the IC50 [3, 6] was 0.22 µM.

`C#Cc1cccc(CN2CCC3=C(C2)C(=O)N(Cc2ccc(Br)cc2)C2=NCCN23)c1` [Compound 13] gave an IC50 [1, 5] of 0.28 µM and an IC50 [3, 6] of 0.28 µM.

For `N#Cc1cccc(CN2CCC3=C(C2)C(=O)N(Cc2ccc(Cl)cc2)C2=NCCN23)c1` [Compound 14], the IC50 [1, 5] was 0.011 µM and the IC50 [3, 6] was 0.024 µM.

For `N#Cc1cccc(CN2CCC3=C(C2)C(=O)N(Cc2ccc(C(F)(F)F)cc2)C2=NCCN23)c1` [Compound 15], the IC50 [1, 5] was 0.007 µM and the IC50 [3, 6] was 0.024 µM.

`O=C1C2=C(CCN(Cc3cccc(F)c3)C2)N2CCN=C2N1Cc1ccc(Br)cc1` [Compound 17] showed an IC50 [1, 5] of 0.023 µM and an IC50 [3, 6] of 0.064 µM.

In the case of `O=C1C2=C(CCN(Cc3cccc(F)c3)C2)N2CCN=C2N1Cc1ccc(C(F)(F)F)cc1` [Compound 18], the “Oral Bioavailability (% F)” value [4] is reported as 27 % F, the AUC(0-inf) [4] is reported as 823 ng·h/mL and the IC50 [1, 5] is reported as 0.022 µM. It also gave an IC50 [3, 6] of 0.078 µM.

In the case of `[2H]c1c([2H])c([2H])c(C([2H])([2H])N2CCC3=C(C2)C(=O)N(Cc2ccc(C(F)(F)F)cc2)C2=NCCN23)c([2H])c1[2H]` [Compound 19], the “Oral Bioavailability (% F)” value [4] is reported as 60 % F, the AUC(0-inf) [4] is reported as 604 ng·h/mL and the IC50 [1, 5] is reported as 0.089 µM.

`O=C1C2=C(CCN(Cc3ccccc3)C2)N2CCN=C2N1Cc1ccc(OC(F)(F)F)cc1` [Compound 20] showed an IC50 [1, 5] of 0.37 µM and an IC50 [3, 6] of 0.82 µM.

With `O=C1C2=C(CCN(Cc3cccc(OC(F)(F)F)c3)C2)N2CCN=C2N1Cc1ccc(C(F)(F)F)cc1` [Compound 21] the IC50 [1, 5] was 0.37 µM and the IC50 [3, 6] was 0.27 µM.

With `C#Cc1ccc(CN2CCC3=C(C2)C(=O)N(Cc2ccc(Cl)cc2)C2=NCCN23)cc1` [Compound 22] the IC50 [1, 5] was 1.8 µM and the IC50 [3, 6] was 3.4 µM.

With `O=C1C2=C(CCN(Cc3ccc(F)cc3)C2)N2CCN=C2N1Cc1ccc(Br)cc1` [Compound 23] the IC50 [1, 5] was 0.36 µM and the IC50 [3, 6] was 0.61 µM.

`O=C1C2=C(CCN(Cc3cccc(C(F)(F)F)c3)C2)N2CCN=C2N1Cc1ccc(C(F)(F)F)cc1` [Compound 24] showed an IC50 [1, 5] of 0.087 µM and an IC50 [3, 6] of 0.22 µM.

With `O=C1C2=C(CCN(Cc3cccs3)C2)N2CCN=C2N1Cc1ccc(Cl)cc1` [Compound 25] the IC50 [1, 5] was 1.7 µM and the IC50 [3, 6] was 0.71 µM.

With `O=C1C2=C(CCN(Cc3ccsc3)C2)N2CCN=C2N1Cc1ccc(Cl)cc1` [Compound 26] the IC50 [1, 5] was 0.57 µM and the IC50 [3, 6] was 0.31 µM.

For `Cc1ccccc1CN1C(=O)C2=C(CCN(Cc3ccccc3)C2)N2CCN=C12` [TIC10, 11-benzyl-7-[(2-methylphenyl)methyl]-2,5,7,11-tetraazatricyclo[7.4.0.0^2,6]trideca-1 (9),5-dien-8-one, reference compound], the “Oral Bioavailability (% F)” value [4] was 1.2 % F, the AUC(0-inf) (in vivo) was 3.1 ng·h/mL and the IC50 ([1]; read-out: IC50 (uM, HCT116)) was 2.8 µM. The “concentration providing similar reductions in pAkt” value [2] was 10 uM and the IC50 ([3]; MDA-MB-231, 48 h, read-out: IC50 (uM, MDA 231)) was 3 µM.
